Assay results from article PMC6039436, “Radiobrominated benzimidazole-quinoline derivatives as Platelet-derived growth factor receptor beta (PDGFRβ) imaging probes” (Scientific Reports, 2018).
“And” between values parts separate entries of the source, which are not always exact repeats. Identical values can stand only once.

Assays:
BxPC3-luc cells = assay: In vitro blocking study; assay type: cell-based; conditions: inhibitor 1, 2 or 3 at 10 µM, 10 min pretreatment
Protocol: Blocking studies using 1, 2, and 3 were performed (Fig. 6). Pretreatment of an excess amount of 1 or 2 decreased uptakes of [^77Br]2 in BxPC3-luc cells. The uptake of [^77Br]3 was inhibited by a pretreatment using 1 or 3 in the same way.
Figure 6 In vitro blocking studies of (a) [^77Br]2 and (b) [^77Br]3 in BxPC3-luc and MCF7 cells. Data were presented as mean ± SD for three samples. Significance was determined using a one-way ANOVA followed by Dunnett’s post hoc test (^*p < 0.001, vs control [^77Br]2 or [^77Br]3).
For in vitro blocking experiment, inhibitor (1, 2, or 3 with final concentration 10 µM) in 1 mL of medium without FBS was added to wells containing 2 × 10^5 cells/well. After 10 min incubation, [^77Br]2 or [^77Br]3 (3.7 kBq/well) in 1 mL of medium without FBS was added to each well. Radioactivity and protein concentration in the cells were determined by the same method above-mentioned.

[1] = Biodistribution in ddY mice; assay type: in vivo; conditions: i.v. co-injection
Protocol: In this study, to minimize both the number of mice consumed in the experiment and the potential for experimental errors, we co-injected radiobrominated and radioiodinated compounds into mice[30],[31]. High radioactivity in the liver, small intestine, and large intestine was observed.
(§1) Mice were intravenously injected via the tail with 100 µL of saline solution of [^77Br]2 and [^125I]4 or [^77Br]3 and [^125I]5 (74 kBq, respectively), containing 10% ethanol and 1% tween-80. The ddY mice were sacrificed at 10 min, 1, 4, and 24 h postinjection. Meanwhile, tumor-bearing mice were sacrificed at 1 h postinjection.
(§2) Tissues in mice were resected and weighed. The radioactivity of the tissues was counted by a gamma counter and counts were corrected for background radiation. The data were expressed as percent injection dose per gram tissue (%ID/g).

BxPC3-luc tumor = assay: Biodistribution in BxPC3-luc tumor-bearing mice; assay type: in vivo, BALB/c nu/nu mice
Protocol: We investigated the biodistribution of the radiotracers in BxPC3-luc tumor-bearing mice by co-injecting [^77Br]2 with [^125I]4 (Table 3), and [^77Br]3 with [^125I]5 (Table 4).
Animal experiments were conducted in strict accordance with the Guidelines for the Care and Use of Laboratory Animals of Kanazawa University. The animal experimental protocols used were approved by the Committee on Animal Experimentation of Kanazawa University (Permit Number: AP-163766). The animals were housed with free access to food and water at approximately 23 °C with a 12 h light/dark schedule. ddY mice (six-week-old, male, 27–30 g) and BALB/c nu/nu mice (four-week-old, female, 12–17 g) were purchased from Japan SLC Inc. (Hamamatsu, Japan). For preparing the tumor-bearing mice, BxPC3-luc cells (5 × 10^6 cells) were subcutaneously injected into the left shoulder of BALB/c nu/nu mice. The tumor reached palpable size after two weeks of the inoculation.
as §1, §2

COCCOc1ccc2c(c1)ncn2-c1ccc2c([77Br])ccc(N3CCC(N)CC3)c2n1 [[^77Br]2, [^77Br]1-{5-Bromo-2-[5-(2-methoxyethoxy)-1H-benzo[d]imidazol-1-yl]quinoline-8-yl}piperidin-4-amine]
Uptake in BxPC3-luc cells after pretreatment with excess inhibitor (BxPC3-luc cells): decreased | Radioactivity in Blood ([1]; 10 min): 0.99 (0.03) %injected dose/gram tissue | Radioactivity in Bone ([1]; 10 min): 2.81 (1.06) %injected dose/gram tissue | Radioactivity in Brain ([1]; 10 min): 0.12 (0.01) %injected dose/gram tissue | Radioactivity in Heart ([1]; 10 min): 4.41 (0.27) %injected dose/gram tissue | Radioactivity in Kidney ([1]; 10 min): 15.61 (1.32) %injected dose/gram tissue | Radioactivity in Large intestine ([1]; 10 min): 0.99 (0.10) %injected dose/gram tissue | Radioactivity in Liver ([1]; 10 min): 12.49 (0.64) %injected dose/gram tissue | Radioactivity in Lung ([1]; 10 min): 10.92 (0.55) %injected dose/gram tissue | Radioactivity in Muscle ([1]; 10 min): 2.24 (0.18) %injected dose/gram tissue | Radioactivity in Pancreas ([1]; 10 min): 4.18 (0.38) %injected dose/gram tissue | Radioactivity in Small intestine ([1]; 10 min): 8.58 (2.18) %injected dose/gram tissue | Radioactivity in Spleen ([1]; 10 min): 5.39 (0.40) %injected dose/gram tissue | Radioactivity in Stomach ([1]; 10 min): 1.74 (0.15) %injected dose /organ | Radioactivity in Blood ([1]; 1 h): 0.28 (0.06) %injected dose/gram tissue | Radioactivity in Bone ([1]; 1 h): 1.15 (0.15) %injected dose/gram tissue | Radioactivity in Brain ([1]; 1 h): 0.10 (0.01) %injected dose/gram tissue | Radioactivity in Heart ([1]; 1 h): 1.15 (0.17) %injected dose/gram tissue | Radioactivity in Kidney ([1]; 1 h): 10.12 (3.49) %injected dose/gram tissue | Radioactivity in Large intestine ([1]; 1 h): 2.69 (0.65) %injected dose/gram tissue | Radioactivity in Liver ([1]; 1 h): 4.26 (1.37) %injected dose/gram tissue | Radioactivity in Lung ([1]; 1 h): 4.32 (0.84) %injected dose/gram tissue | Radioactivity in Muscle ([1]; 1 h): 0.92 (0.04) %injected dose/gram tissue | Radioactivity in Pancreas ([1]; 1 h): 2.98 (0.75) %injected dose/gram tissue | Radioactivity in Small intestine ([1]; 1 h): 29.51 (7.92) %injected dose/gram tissue | Radioactivity in Spleen ([1]; 1 h): 1.59 (0.28) %injected dose/gram tissue | Radioactivity in Stomach ([1]; 1 h): 1.62 (0.55) %injected dose /organ | Radioactivity in Blood ([1]; 4 h): 0.20 (0.03) %injected dose/gram tissue | Radioactivity in Bone ([1]; 4 h): 1.50 (1.27) %injected dose/gram tissue | Radioactivity in Brain ([1]; 4 h): 0.09 (0.00) %injected dose/gram tissue | Radioactivity in Heart ([1]; 4 h): 0.58 (0.13) %injected dose/gram tissue | Radioactivity in Kidney ([1]; 4 h): 4.33 (0.75) %injected dose/gram tissue | Radioactivity in Large intestine ([1]; 4 h): 53.70 (8.89) %injected dose/gram tissue | Radioactivity in Liver ([1]; 4 h): 3.44 (0.98) %injected dose/gram tissue | Radioactivity in Lung ([1]; 4 h): 2.71 (1.06) %injected dose/gram tissue | Radioactivity in Muscle ([1]; 4 h): 0.44 (0.07) %injected dose/gram tissue | Radioactivity in Pancreas ([1]; 4 h): 1.63 (0.19) %injected dose/gram tissue | Radioactivity in Small intestine ([1]; 4 h): 4.76 (0.89) %injected dose/gram tissue | Radioactivity in Spleen ([1]; 4 h): 0.69 (0.24) %injected dose/gram tissue | Radioactivity in Stomach ([1]; 4 h): 0.81 (0.21) %injected dose /organ | Radioactivity in Blood ([1]; 24 h): 0.12 (0.02) %injected dose/gram tissue | Radioactivity in Bone ([1]; 24 h): 0.55 (0.10) %injected dose/gram tissue | Radioactivity in Brain ([1]; 24 h): 0.07 (0.00) %injected dose/gram tissue | Radioactivity in Heart ([1]; 24 h): 0.29 (0.03) %injected dose/gram tissue | Radioactivity in Kidney ([1]; 24 h): 0.21 (0.05) %injected dose/gram tissue | Radioactivity in Large intestine ([1]; 24 h): 0.18 (0.03) %injected dose/gram tissue | Radioactivity in Liver ([1]; 24 h): 0.29 (0.08) %injected dose/gram tissue | Radioactivity in Lung ([1]; 24 h): 0.29 (0.05) %injected dose/gram tissue | Radioactivity in Muscle ([1]; 24 h): 0.22 (0.02) %injected dose/gram tissue | Radioactivity in Pancreas ([1]; 24 h): 0.41 (0.34) %injected dose/gram tissue | Radioactivity in Small intestine ([1]; 24 h): 0.07 (0.01) %injected dose/gram tissue | Radioactivity in Spleen ([1]; 24 h): 0.66 (0.77) %injected dose/gram tissue | Radioactivity in Stomach ([1]; 24 h): 0.11 (0.01) %injected dose /organ | Tumor-to-blood ratio of radioactivity (BxPC3-luc tumor; 1 h postinjection): 2.8 | Radioactivity in Blood (BxPC3-luc tumor; i.v. co-injection, 1 h): 0.58 (0.10) %injected dose/gram of tissue | Radioactivity in Bone (BxPC3-luc tumor; i.v. co-injection, 1 h): 1.15 (0.09) %injected dose/gram of tissue | Radioactivity in Brain (BxPC3-luc tumor; i.v. co-injection, 1 h): 0.14 (0.03) %injected dose/gram of tissue | Radioactivity in BxPC3-luc tumor (BxPC3-luc tumor; i.v. co-injection, 1 h): 1.61 %injected dose/gram of tissue and 1.61 ± 0.24 %injected dose/gram of tissue and 1.61 (0.24) %injected dose/gram of tissue | Radioactivity in Heart (BxPC3-luc tumor; i.v. co-injection, 1 h): 1.88 (0.33) %injected dose/gram of tissue | Radioactivity in Kidney (BxPC3-luc tumor; i.v. co-injection, 1 h): 17.39 (4.03) %injected dose/gram of tissue | Radioactivity in Large intestine (BxPC3-luc tumor; i.v. co-injection, 1 h): 3.22 (0.40) %injected dose/gram of tissue | Radioactivity in Liver (BxPC3-luc tumor; i.v. co-injection, 1 h): 11.07 (1.04) %injected dose/gram of tissue | Radioactivity in Lung (BxPC3-luc tumor; i.v. co-injection, 1 h): 10.31 (1.91) %injected dose/gram of tissue | Radioactivity in Muscle (BxPC3-luc tumor; i.v. co-injection, 1 h): 0.94 (0.08) %injected dose/gram of tissue | Radioactivity in Pancreas (BxPC3-luc tumor; i.v. co-injection, 1 h): 6.61 (1.00) %injected dose/gram of tissue | Radioactivity in Small intestine (BxPC3-luc tumor; i.v. co-injection, 1 h): 51.52 (9.93) %injected dose/gram of tissue | Radioactivity in Spleen (BxPC3-luc tumor; i.v. co-injection, 1 h): 2.94 (0.54) %injected dose/gram of tissue | Radioactivity in Stomach (BxPC3-luc tumor; i.v. co-injection, 1 h): 0.96 (0.20) %injected dose /organ
